In patent publication US20160108381A1, “DNA POLYMERASES AND MUTANTS THEREOF” (LIFE TECHNOLOGIES CORPORATION, priority 2001, published 2016):

B1: Clostridium stercorarium DNA polymerase, N-terminal His6 tag (Cst-His), SEQ ID NO:14 (Thermoclostridium stercorarium subsp. stercorarium DSM 8532) (protein)
chain: MKYLLPTAAAGLLLLAAQPAMAMDPKIILIDGNSILNRGFYALSGRSMLTTSTGLYTNAVFAFVNILNKYIEEENPDYIAVAFDLRAKTFRHGLYEGYKAQRKGMPDELAMQIPLAKEVLRAMNIAIIEHEGYEADDIIGSLSLKAEKENFDVIILTGDRDSFQLISDRVKVILPSTKAGKTETNVYDKQAIIDKYGVLPHQLIDVKGLMGDSSDNIPGVPGVGEKTALSLISAYGTLEGVYEHIDEIKQPKLKASLIEYKDQAFLSRKLGTIVRNLELCASLEDLKRKEINRKELLNVFRKLEFESIISKMNLASAEVTELPPAPEELKITHISAAEDLKKWIAYLLNQKNISVLQLIDREDSYSSRLSGLALCTGDEVFYIETGTALPENLIATELKELWQNENIHKIGHNIKEFITWLLKHDVELNGLYFDTMIAEYLIDSIRNGYPIASLSHKYLNRSVPSLDELLGKGKGAKKYSEIPPERLKDYSAYNVKAIFDIWPMQKKVLQENRQEELFNDIELPLITVLASMEYHGFKVDAAKLHEYGEVLLSRIKDLEKVIYMLAGEEFNINSTKQLGTILFEKLKLPVVKSTKTGYSTDVEVLEELYYKHDIIPCIIEYRQLTKLYTTYAEGLEKVINPVTGKIHSSFNQTVTATGRISSTEPNLQNIPVRHEMGREIRKAFIPSSENAVFVDADYSQIELRVLAHITGDEALINAFVKGEDIHTATASLVFDVAPEDVTPELRRKAKAVNFGIVYGISDYGLARDLGITRKEAKRYIDDYFAKYPKVKTYVDEIVRVGQEQGYVETLFHRRRYLPELASKNFHQRSFGKRVAMNTPIQGTAADIIKIAMVKVYKALKESGLKSRLILQVHDELVIETFEDELETVKELVKKCMEEAVELSVPLVVDVSIGKNWYEAS
B2: Clostridium thermosulfurogenes DNA polymerase, N-terminal His6 tag (Cth-His), SEQ ID NO:15 (Thermoanaerobacterium thermosulfurigenes) (protein)
chain: MKYLLPTAAAGLLLLAAQPAMAMAKFLIIDGNSLMYRAYFALPDLMNSEGMHTNAIYGFSMMLLKLLEEEKPDYIAIAFDKKASTFRHKEYSAYKGTRQSMPEELIEQVDILKDVINAFNIKTIEIEGFEADDIIGTVSKIASESGMDVLIVTGDRDALQLVSANVKVKICKKGITQMDEYDEKAVFEKYEVTPLQFIDLKGLMGDKSDNIPGVPNIGEKTAIKLVKEFGSIENLLMNTDKLKGKIKENVENNAELAVLSKRLATIERNVPIDIDLNEYAVKNYDVNKLTELFEKLEFSSLISDLKDDSRDTKDIKEWPVRDFTYVKNVLGKFDVLSLYPFIYDGKIKAVSFACGDGSFFVEIDDYDNFKLLNNDKLTLIGHDLKDFLVNISYCGIELNCKILDTAIMTYLLNPSESNYDISRVLKKYLKEDLQNIDDIVGKGRNKKSYDDIDKKLLVDYMCSAASNLSKLKDKLMSFIKEMEMEDLLKNVEIPLIEVLKSMEVYGFTLDKDVLRSISKEIDEKTDKIVKDIYDAAGYEFNINSTKQLSEFLFDKLNLPAIKKTKTGYSTDMEVLAELIPYNDIVGEIIEYRQLMKLKSTYIDGFIPIMDENNRVHSTFKQTVAATGRISSTEPNLQNIPVREEFGRRIRKAFVSSYEDGLIISADYSQIELRVLAHLSEDEKLIESFLNNEDIHLRTASEVFKVSKEEVTSEMRRRAKAVNFGIVYGISDYGLSKDLKISRKEAKEYIDNYFDRYKGVKNYIDSIVKFAKENGYVTTILNRRRYIPEINSKNFNQRSFGERMAMNTPIQGSAADIIKMSMVKVYNELKERGLKSRLILQVHDELIIDTHPDEVEIVKELLKSIMENIIKLKVPLVVDIGQGKNWYDAK

Key:
[1] = molecular target: T1, Clostridium thermosulfurogenes DNA polymerase, N-terminal His6 tag (Cth-His), SEQ ID NO:15 (Thermoanaerobacterium thermosulfurigenes, UniProt Q6X9R5); assay: Steady-state kinetics, DNA- and RNA-dependent polymerase activity; settings: Table 34, DNA template, 2 mM MgCl2, 45 °C per footnote
T1 sequence (Q6X9R5 with tags, fused parts or gaps): B2 chain
Excerpt: (§1) Subcloning of genes for Cst and Cth DNA polymerases. In order to improve expression and simplify purification of Cst and Cth DNA polymerase, the genes were subcloned downstream of a T7 promoter and an amino-terminal His6 tag sequence was introduced using Gateway cloning technology (Invitrogen Corporation, Carlsbad, Calif.). The sequence of the DNA oligonucleotide used at the 5′ end of the Cst gene was: 5′-[…] ATAGAC 3′ (SEQ ID NO:37). The sequence of the DNA oligonucleotide used at the 5′ end of the Cth gene was: 5′-[…] […]-3′ (SEQ ID NO:38). The sequence of the DNA oligonucleotide used at the 3′ end of each gene was the same: 5′-[…] […] 3′ (SEQ ID NO:39). Purified pET26B plasmid DNA (Novagen Inc., Madison, Wis.) bearing the gene for Cst or Cth DNA polymerase was amplified by PCR utilizing the primers listed above and Platinum Taq HiFi DNA polymerase (Invitrogen Corporation, Carlsbad, Calif.). PCR products purified by agarose gel electrophoresis were cloned into Gateway vector pDON21 and transferred by recombination into vector pDEST17. […] Each final recombinant plasmid was transformed into the E. coli expression host BL21-AI (Invitrogen Corporation, Carlsbad, Calif.).
(§2) Purification of Cst-His and Cth-His DNA polymerases. E. coli cells (BL21AI) bearing the plasmid pDEST17 with the gene for Cst-His or Cth-His DNA polymerase were grown in 2.8-1 Fembach flasks in LB broth containing 50 μg/ml ampicillin at 37° C. After the culture reached an A590 of 1.0, expression of DNA polymerase was induced by the addition of 0.2% arabinose for 3 hr. Cells were harvested by centrifugation and stored at −70° C.
(§3) Steady-state kinetic measurements.
(§4) The assays were conducted in the presence of 1.5 mM MgCl2 at 55° C. for all enzymes except the Caldibacillus cellulovorans CompA.2 enzyme where 2 mM MgCl2 and 45° C. were used.

[2] = molecular target: T2, Clostridium stercorarium DNA polymerase, N-terminal His6 tag (Cst-His), SEQ ID NO:14 (Thermoclostridium stercorarium, UniProt L7VMI6); assay: as above; settings: Table 34, DNA template, 2 mM MgCl2, 45 °C per footnote
T2 sequence (L7VMI6 with tags, fused parts or gaps): B1 chain
Excerpt: as §1, §2, §3, §4

[3] = molecular target: T3, Thermotoga neapolitana (Tne) DNA polymerase, mutated to eliminate 3′ to 5′ and 5′ to 3′ exonuclease activity (Thermotoga neapolitana, UniProt B9K7T2); assay: as above; type: biochemical
T3 construct: mutated to eliminate 3'-5' and 5'-3' exonuclease activity as in US 6,306,588 (recalled, unsure: D137A and D323A)
T3 sequence (B9K7T2 entry or part of it, stated change not applied): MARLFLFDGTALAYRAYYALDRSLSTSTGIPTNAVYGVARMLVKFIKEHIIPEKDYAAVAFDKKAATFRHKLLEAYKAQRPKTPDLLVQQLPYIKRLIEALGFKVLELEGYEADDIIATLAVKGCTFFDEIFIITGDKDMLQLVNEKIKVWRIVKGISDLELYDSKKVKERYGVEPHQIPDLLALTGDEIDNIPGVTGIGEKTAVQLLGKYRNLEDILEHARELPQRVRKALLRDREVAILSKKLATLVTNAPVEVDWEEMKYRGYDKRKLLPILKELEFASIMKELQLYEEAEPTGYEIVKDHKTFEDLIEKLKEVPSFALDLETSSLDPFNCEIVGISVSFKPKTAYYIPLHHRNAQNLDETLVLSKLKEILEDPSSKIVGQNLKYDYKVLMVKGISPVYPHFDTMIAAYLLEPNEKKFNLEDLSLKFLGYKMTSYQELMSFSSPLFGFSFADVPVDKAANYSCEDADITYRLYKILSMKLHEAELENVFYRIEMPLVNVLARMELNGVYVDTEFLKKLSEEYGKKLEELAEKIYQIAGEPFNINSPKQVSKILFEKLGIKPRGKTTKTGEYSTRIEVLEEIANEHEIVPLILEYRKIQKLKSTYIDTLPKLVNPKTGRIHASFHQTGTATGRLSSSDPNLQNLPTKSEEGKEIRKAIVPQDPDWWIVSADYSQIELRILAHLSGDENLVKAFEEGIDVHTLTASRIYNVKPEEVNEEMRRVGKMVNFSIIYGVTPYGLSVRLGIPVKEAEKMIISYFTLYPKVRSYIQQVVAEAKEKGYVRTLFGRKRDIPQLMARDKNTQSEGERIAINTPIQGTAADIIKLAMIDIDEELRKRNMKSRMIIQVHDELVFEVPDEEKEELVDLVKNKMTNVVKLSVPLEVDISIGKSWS
Experimental: (§5) Thermotoga neapolitana (Tne) DNA polymerase mutated to eliminate 3′ to 5′ and 5′ to 3′ exonuclease activity was cloned, engineered and purified as described in U.S. Pat. No. 6,306,588. SuperScript II reverse transcriptase (SS II RT) was from Invitrogen Corporation, Carlsbad, Calif.
as §3
(§6) The catalytic rate constant kcat and the Michaelis constant KM were determined for both the DNA-dependent and RNA-dependent polymerase activities for the polypeptides of the invention and these parameters were compared to those of Tne DNA polymerase enzyme and […]™ II reverse transcriptase. […]

[4] = molecular target: SuperScript II reverse transcriptase (SSII, SS II RT), a modified M-MLV reverse transcriptase (Moloney murine leukemia virus isolate Shinnick, UniProt P03355); assay: as above; type: biochemical
Experimental: as §5, §3, §6

[5] = substrate: Cc1cn([C@H]2C[C@H](O)[C@@H](COP(=O)(O)OP(=O)(O)OP(=O)(O)O)O2)c(=O)[nH]c1=O; assay: purified protein, by the assay type; settings: 55 °C, mean ± SD
[6] = Table 34, DNA template, 2 mM MgCl2, 45 °C per footnote
[7] = read-out: Km DNA (dGTP), Table 34, DNA template, 2 mM MgCl2, 45 °C per footnote
[8] = other: Table 40, (dA)270•(dT)40, dTTP
[9] = other: Table 40, (rA)250•(dT)30, dTTP

Molecule | Kcat DNA (dGTP) [1] [s⁻¹] | Km ([1]; read-out: Km DNA (dGTP)) [µM] | Kcat DNA (dGTP) [2] [s⁻¹] | Km ([2]; read-out: Km DNA (dGTP)) [nM] | Kcat DNA (dGTP) [3, 6] [s⁻¹] | kCAT DNA-DNA ([3]; Table 40, (dC)n•(dG)35, dGTP, 72 °C, mean ± SD) [s⁻¹] | Km [3, 7] [µM] | Kcat DNA (dGTP) [4, 6] [s⁻¹] | kCAT DNA-DNA ([4]; Table 40, (dC)n•(dG)35, dGTP, 37 °C, mean ± SD) [s⁻¹] | Km [4, 7] [nM] | kcat [5, 8] [s⁻¹] | kcat [5, 9] [s⁻¹]
Nc1nc2c(ncn2[C@H]2C[C@H](O)[C@@H](COP(=O)(O)OP(=O)(O)OP(=O)(O)O)O2)c(=O)[nH]1 [dGTP] | 57 | 17.1 | 11.5 | 500 | 17.5 | 130 ± 32 | 17.2 | 15.4 | 16 ± 2 | 2400 | – | –
B1 | – | – | – | – | – | – | – | – | – | – | 40 ± 13 | 88 ± 5
B2 | – | – | – | – | – | – | – | – | – | – | 28 ± 1 | 16 ± 1
